Source: patent publication US8309726B2, “Substituted piperazine compounds of formula 8” (Council of Scientific & Industrial Research, priority 2007, dated 2012)

Test system: calf thymus (CT) DNA
Test: Thermal denaturation studies with duplex-form calf thymus DNA
Format: binding
Details: for ΔTm (° C.) after incubation at 37° C. for 0 h / ΔTm (° C.) after incubation at 37° C. for 18 h / ΔTm (° C.) after incubation at 37° C. for 36 h: [ANCD]/[DNA] molar ratio 1:5, CT-DNA 100 μM, ligand 20 μM, sodium phosphate buffer pH 7.00; for ΔTm (° C.) after incubation at 37° C. for 0 h: 0 h at 37° C.; for ΔTm (° C.) after incubation at 37° C. for 18 h: 18 h at 37° C.; for ΔTm (° C.) after incubation at 37° C. for 36 h: 36 h at 37° C.; for Course of ΔTm over incubation at 0 hr, 18 hr and 36 hr: incubation at 37° C., [ANCD]/[DNA] 1:5
Procedure: Compounds were subjected to thermal denaturation studies with duplex-form calf thymus DNA (CT-DNA) using an adaptation of a reported procedure. Working solutions in aqueous buffer (10 mM NaH2PO4/Na2HPO4, 1 mM Na2EDTA, pH 7.00+/−0.01) containing CT-DNA (100 μM in phosphate) and the PBD (20 μM) were prepared by addition of concentrated ANCD solutions in DMSO to obtain a fixed [ANCD]/[DNA] molar ratio of 1:5. The DNA-ANCD solutions were incubated at 37° C. for 0, 18, and 36 h prior to analysis. Samples were monitored at 260 nm using a Beckman DU-7400 spectrophotometer fitted with high performance temperature controller, and heating was applied at 1° C. min^−1 in the 40-90° C. range. DNA helix coil transition temperatures (Tm) were obtained from the maxima in the (dA260)/dT derivative plots. Results are given as the mean+/−standard deviation from three determinations and are corrected for the effects of DMSO co-solvent using a linear correction term. Drug-induced alterations in DNA melting behaviour are given by: ΔTm=Tm (DNA+ANCD)−Tm (DNA alone), where the Tm value for the ANCD-free CT-DNA is 69.0+/−0.01.

Row | Molecule | ΔTm (° C.) after incubation at 37° C. for 0 h [°C] | ΔTm (° C.) after incubation at 37° C. for 18 h [°C] | ΔTm (° C.) after incubation at 37° C. for 36 h [°C] | Course of ΔTm over incubation at 0 hr, 18 hr and 36 hr
1 | {2-amino-5-(methyloxy)-4[(phenylmethyl)oxy]phenyl}[4-({2-amino-5-(methyloxy)-4-[(phenylmethyl)oxy]phenyl}carbonyl)hexahydro-1-piperazinyl]methanone [Compound 8g] | 1.6 | 2.6 | 2.9 | gradually increased
2 | COc1cc2c(cc1O)N=CC1CCCN1C2=O (centres unmarked) [DC-81, reference compound] | 0.3 | 0.7 | – | –
3 | COc1cc(C(=O)Nc2ccc(S(=O)(=O)c3ccc(NC(=O)c4cc(OC)c(OCc5ccccc5)cc4N)cc3)cc2)c(N)cc1OCc1ccccc1 [Compound 8h, N1-4-[(4-[2-amino-4-(benzyloxy)-5-methoxybenzoyl]aminophenyl)sulfonyl]phenyl-2-amino-4-(benzyloxy)-5-methoxybenzamide] | 1.5 | 2.3 | 2.4 | gradually increased
4 | COc1cc(C(=O)N2CCN(c3ccccc3OC)CC2)c(NC(=O)c2cnccn2)cc1OCc1ccccc1 [Compound 8f, (4-(Benzyloxy)-5-methoxy-2-(pyrazine-2-carbamido)phenyl)(4-(2-methoxyphenyl)piperazin-1-yl)methanone] | 1.3 | 2.1 | 3.0 | gradually increased
